Counter-ions that a name gives are not always drawn. Like-named read-outs stand apart in the source and are kept apart here.
Assays:
[1] = target: T1, CCK-A receptor (Rattus norvegicus, UniProt P30551); assay: displacement of ^125 I-CCK from rat pancreas (CCK-A receptor binding)
T1 sequence (P30551 1-444): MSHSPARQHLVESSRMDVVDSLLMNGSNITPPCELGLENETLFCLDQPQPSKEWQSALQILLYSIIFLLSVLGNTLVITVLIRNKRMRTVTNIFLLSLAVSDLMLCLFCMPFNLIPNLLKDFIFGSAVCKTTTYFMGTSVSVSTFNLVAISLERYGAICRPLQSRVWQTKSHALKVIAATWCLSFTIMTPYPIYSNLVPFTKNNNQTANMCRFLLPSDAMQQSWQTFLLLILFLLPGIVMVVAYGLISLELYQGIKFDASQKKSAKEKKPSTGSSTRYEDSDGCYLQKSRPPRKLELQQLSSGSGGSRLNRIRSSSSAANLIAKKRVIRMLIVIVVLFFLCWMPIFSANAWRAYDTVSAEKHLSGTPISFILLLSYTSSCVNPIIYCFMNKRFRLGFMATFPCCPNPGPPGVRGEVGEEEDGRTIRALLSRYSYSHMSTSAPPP
Description: (§1) The CCK-A and CCK-B antagonising activity of the compounds described herein was evaluated using the assays described in published European patent application no. […] The method essentially involves determining the concentration of the test compound required to displace 50% of the specific ^125 I--CCK from rat pancreas (CCK-A) or guinoa pig brain (CCK-B).

[2] = target: T2, CCK-B receptor (Cavia porcellus, UniProt H0VZC5); assay: displacement of ^125 I-CCK from guinea pig brain (CCK-B receptor binding); settings: guinoa pig brain (CCK-B)
T2 construct: guinoa pig brain (CCK-B); from tissue; host or cells: guinea pig brain
T2 sequence (H0VZC5 1-426): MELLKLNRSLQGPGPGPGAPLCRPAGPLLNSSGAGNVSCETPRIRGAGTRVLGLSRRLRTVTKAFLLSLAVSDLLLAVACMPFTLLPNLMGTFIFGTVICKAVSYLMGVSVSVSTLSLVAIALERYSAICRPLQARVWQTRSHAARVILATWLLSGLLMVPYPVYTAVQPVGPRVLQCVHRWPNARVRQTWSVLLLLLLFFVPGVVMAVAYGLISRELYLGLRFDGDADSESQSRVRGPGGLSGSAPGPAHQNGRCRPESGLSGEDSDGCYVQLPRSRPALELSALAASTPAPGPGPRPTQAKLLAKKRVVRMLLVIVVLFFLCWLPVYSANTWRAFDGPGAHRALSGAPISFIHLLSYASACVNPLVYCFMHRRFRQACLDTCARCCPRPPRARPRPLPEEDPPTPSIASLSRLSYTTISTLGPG
Description: as §1

[3] = ^125 I-CCK, rat pancreas (CCK-A), read-out: CCK receptor binding IC50, ^125 I-CCK Pancreas
[4] = read-out: CCK receptor binding IC50, ^125 I-CCK Brain

Structure (SMILES) | IC50 [1, 3] [nM] | IC50 [2, 4] [nM] | IC50 ([2]; CCK receptor binding IC50, ^125 I-CCK Brain) [nM] | IC50 [1] [nM]
CCCN1C(=O)C(NC(=O)Nc2cccc(C)c2)N=C(C2CCCCN2C)c2ccccc21 (single isomer, unassigned) [Example 3, N-[2,3-Dihydro-5-(1-methylpiperidin-2-yl)-2-oxo-1-(1propyl)-1H-1,4-benzodiazepin-3-yl]-N'-[3-methylphenyl]urea hydrochloride] |  |  | 53.6 | 
CCCN1C(=O)C(NC(=O)Nc2ccc3c(c2)CCC3)N=C(C2CC(C)(C)CCN2)c2ccccc21 (single isomer, unassigned) [Example 12, N-[2,3-Dihydro-5-(4,4-dimethylpiperidin-2-yl)-2-oxo-1-(1-propyl)-1H, 1,4-benzodiazepin-3-yl-N'-[5-indanyl]urea hydrochloride] |  |  |  | 3220
Cc1cccc(NC(=O)NC2N=C(C3CCNCC3)c3ccccc3N(CC(C)C)C2=O)c1 (centres unmarked) [Example 9, N-[2,3-Dihydro-1-(2-methylpropyl)-2-oxo-5-(piperidin-4-yl)-1H-1,4-benzodiazepin-3-yl]-N'-[3-methylpheny]urea trifluoroacetic acid salt] | 2670 | 290 |  | 
Cc1cccc(NC(=O)NC2N=C(C3CCN(C)CC3)c3ccccc3N(CC(C)C)C2=O)c1 (centres unmarked) [Example 10, N-[2,3-Dihydro-5-(N-methylpiperidin-4-yl)-1-(2-methylpropyl)-2-oxo-1H-1,4-benzodiazepin-3-yl]-N'-[3-methylphenyl]urea hydrochloric acid salt] | 2930 | 240 |  | 
CC(C)CN1C(=O)C(NC(=O)Nc2cccc(-c3nnn[nH]3)c2)N=C(C2CCNCC2)c2ccccc21 (centres unmarked) [Example 11, N-[2,3-Dihydro-1-(2-methylpropyl)-2-oxo-5-(piperidin-4-yl)-1H-1,4-benzodiazepin-3-yl]-N'-[3-(tetrazol-5-yl)phenyl]urea, trifluoroacetic acid salt] | > 3000 | 55 |  | 

Further compounds by falling IC50 [2, 4], results first:

IC50 [1, 3] [nM] | IC50 [2, 4] [nM] | Structure (SMILES) | IC50 ([2]; CCK receptor binding IC50, ^125 I-CCK Brain) [nM] | IC50 [1] [nM]
> 3000 | 41.8 | CCCN1C(=O)C(NC(=O)Nc2cccc(C)c2)N=C(C2CCCCN2)c2ccccc21 (single isomer, unassigned) [Example 1, N-[2,3-Dihydro-2-oxo-5-(piperidin-2-yl)-1-(1-propyl)-1H-1,4-benzodiazepin-3-yl]-N'-[3-methylphenyl]urea hydrochloride] |  | 
> 3000 | 36.4 | CCCN1C(=O)C(NC(=O)Nc2cccc(C)c2)N=C(C2CCCCN2)c2ccccc21 (single isomer, unassigned) [Example 2, N-[2,3-Dihydro-2-oxo-5-(piperidin-2-yl)-1-(1-propyl)-1H-1,4,benzodiazepin-3-yl]-N'-[3-methylphenylurea hydrochloride] |  | 
 | 25.5 | CCCN1C(=O)C(NC(=O)Nc2cccc(C)c2)N=C(C2CCC(C)(C)CCN2C)c2ccccc21 (single isomer, unassigned) [Example 5, N-[2,3-Dihydro-5-(2,3,4,5,6-hexahydro-1,5,5,-trimethyl-1H-azepin-2-yl)-2-oxo-1-(1-propyl)-1H-1,4-benzodiazepin-3-yl]-N'-[3-methylphenyl]urea hydrochloride] |  | 
 | 12 | Cc1cccc(NC(=O)NC2N=C(C3CCC(C)(C)CCN3)c3ccccc3N(C)C2=O)c1 (single isomer, unassigned) [Example 6, N-[2,3-Dihydro-5-(5,5-dimethyl-2,3,4,5,6-hexahydro-1H-azepin-2-yl)-1-methyl-2-oxo-1H-1,4-benzodiazepin-3-yl]-N'-[3-methylphenyl]urea hydrochloride] |  | 
6490 | 2.37 | CN1C(=O)C(NC(=O)Nc2ccc3c(c2)CCC3)N=C(C2CCC(C)(C)CCN2)c2ccccc21 (single isomer, unassigned) [Example 7, N-[2,3-Dihydro-5-(5,5-dimethyl-2,3,4,5,6-hexahydro-1H-azepin-2-yl)-1-methyl-2-oxo-1H-1,4-benzodiazepin-3-yl]-N'-[5-indanyl]urea hydrochloride] |  | 
 | 1.47 | CCCN1C(=O)C(NC(=O)Nc2cccc(C)c2)N=C(C2CC(C)(C)CCN2)c2ccccc21 (single isomer, unassigned) [Example 8, N-[2,3-Dihydro-5-(4,4-dimethylpiperidin-2-yl)-2-oxo-1-(1-propyl)-1H-1,4-benzodiazepin-3-yl]-N'-[3-methylphenyl]urea hydrochloride] |  | 
